Assay results published in patent US8618127B2, “Methods and compositions for alleviating stuttering” (Endo Pharmaceuticals Solutions Inc., priority 2000, dated 2013).

Legend:
[1] = Stuttering of a patient treated with pagoclone in a double-blind placebo-controlled panic disorder clinical trial; assay type: in vivo, human
Experimental: A patient is enrolled in a clinical trial examining the efficacy and safety of pagoclone, a drug which works at the GABAA receptor, in the treatment of panic disorder, an anxiety disorder. […] The double-blind placebo-controlled trial conceals the drug type until the conclusion of the trial. During the trial the patient is taking 0.60 mg pagoclone/day (0.20 mg t.i.d.). The patient had never before experienced this sort of an effect on their stuttering and they had taken, in the past, other anti-anxiety medications for their psychiatric condition, none of which had such an effect on their stuttering. During the trial, both they and the clinician treating them in the clinical trial notice the reduction in their stuttering, which is documented at their week 2 visit. […] During the trial they also are taking ibuprofen and a prophylactic for urinary tract infections.

[2] = eight-week course, randomized patients; cited from earlier work
[3] = Elliot et al. 1985; cited from earlier work

CC(C)CCC(=O)CC1c2ccccc2C(=O)N1c1ccc2ccc(Cl)nc2n1 (single isomer, unassigned; (+)) [pagoclone, (+)2-(7-chloro-1,8-naphthyridine-2-yl)-3-(5-methyl-2-oxo-hexyl)-1-isoindolinone]
effect on stuttering while taking the drug ([1]; patient, fairly severe stuttering, 0.60 mg pagoclone/day (0.20 mg t.i.d.), documented at week 2 visit): significant reduction in their fairly severe stuttering problem | effect on anxiety and psychiatric condition ([1]; same patient with panic disorder, 0.60 mg pagoclone/day): reduction in their anxiety and improvement in their psychiatric condition | stuttering after stopping the drug ([1]; same patient, after stopping pagoclone): returns to the pre-drug level within a day

O=C(CCCN1CCC(O)(c2ccc(Cl)cc2)CC1)c1ccc(F)cc1 [haloperidol]
effect on stuttering, objective measures of speech [2]: significant improvement

Cc1nnc2n1-c1ccc(Cl)cc1C(c1ccccc1)=NC2 [Alprazolam]
drug-induced stuttering [3]: can induce stuttering
